The text below walks through data of publication PMC5787524, “Discovery of a FLT3 inhibitor LDD1937 as an anti-leukemic agent for acute myeloid leukemia” (Oncotarget, 2017).

“And” between values parts separate entries of the source, which are not always exact repeats. Equal values may be shown once. Read-outs that look alike come from different tables or passages of the source.

One series concerns MCF-7 cells. Kind of series: Cell viability / growth inhibition (EZ-Cytox), MCF-7. In kind it is cell-based. Conditions: Homo sapiens, MCF7; Table 2, 72 h. Here is the method:
(§1) MV-4-11 human acute myeloid leukemia cells were purchased from the American Type Culture Collection (ATCC, Rockville, MD, USA, CRL-9591), and the cells were cultured in IMDM medium (Sigma Co., St. Louis, MO, USA) supplemented with 10% fetal bovine serum, 1% penicillin/streptomycin and 4 mM L-glutamine (Life Technology, Grand Island, NY). Jurkat (human acute T lymphocytic leukemia, ATCC TIB-152) and K562 (human chronic myelogenous leukemia, ATCC CCL-243) cells were cultured in RPMI-1640 (Sigma Co.), and MCF7 (human breast adenocarcinoma, ATCC HTB-22) and PC-3 (human prostate adenocarcinoma, ATCC CRL-1435) cells were cultured in DMEM (Sigma Co.) medium supplemented with 10% fetal bovine serum and 1% penicillin/streptomycin. The cultured cells were incubated at 37°C with 5% CO2. Cell viability was assessed with a tetrazolium-based assay using the EZ-Cytox Cell Viability Assay kit (DaeilLab, Korea). Briefly, 2,000 ∼ 15,000 cells were plated in 96-well flat bottom plates in 100 µl of medium. The next day, the cells were treated with compounds along with dimethyl sulfoxide (DMSO, Fisher, Waltham, MA, USA) as a negative control. […] After incubation, the optical density (OD) was measured at a wavelength of 450 nm with a Victor multilabel reader (Perkin Elmer, Waltham, MA, USA). The IC50 was calculated with nonlinear regression using Prism version 5.01 (GraphPad, La Jolla, CA, USA).

In a further series the test system is K562 cells. The series can be described thus: Cell viability / growth inhibition (EZ-Cytox), K562. In kind it is cell-based. Conditions: Homo sapiens, Table 2, 72 h. Here is the method: as §1
Another series deals with MV-4-11 cells. Kind of series: TUNEL assay. In kind it is cell-based, human. Conditions: 100 nM, 24 h. Here is the method: For the terminal deoxynucleotidyl transferase dUTP nick end labeling (TUNEL) assay, the APO-DIRECT Kit (BD Biosciences, San Diego, CA, USA) was used. Briefly, 2 × 10^6 cells were harvested and fixed in 2% formaldehyde/PBS solution for 30 min. on ice. The fixed cells were washed twice with PBS and stored in 1 ml of 70 % ethanol at –20°C until use. After washing with wash buffer, the cells were incubated in DNA Labeling Solution (reaction buffer, TdT Enzyme, and FITC dUTP) for 60 min. at 37°C. After labelling, the cells were washed twice with rinse buffer. The cells were incubated with 200 µg/ml RNase A and 5 µg/ml PI for an additional 30 min at room temperature. […] was measured with an Accuri C6 flow cytometer.

Series [1] deals with cyclin D1 level in MV-4-11 cells. The series can be described thus: Cyclin D1 western blot. In kind it is cell-based, human. Conditions: MV-4-11, 16 h, from as low as 10 nM. Here is the method: (§2) Cells were lysed in SDS Lysis buffer (12 mM Tris-Cl, pH 6.8, 5% glycerol, and 0.4% SDS), and the protein concentrations were measured with the SMART BCA Protein Assay kit (iNtRON Biotechnology, Korea). The proteins were resolved with SDS-polyacrylamide gel electrophoresis followed by transfer to PVDF membranes (Millipore, Billerica, MA, USA) and incubated overnight with the appropriate antibodies. The antibodies used were as follows: phospho-STAT5 (p-STAT5; rabbit polyclonal IgG; #9351, 1:1,000), cyclin D1 (rabbit polyclonal IgG; #2922, 1:1,000), and PARP (rabbit polyclonal IgG; #9542, 1:1,000) from Cell Signaling Technology (Danver, MA, USA), STAT5 (rabbit polyclonal IgG; #sc-835, 1:1,000) from Santa Cruz (Santa Cruz, CA, USA), and β-actin (mouse monoclonal IgG; # A5441, 1:5000) from Sigma-Aldrich. Goat anti-rabbit IgG (#111-035-003; 1;5,000) and anti-mouse IgG (#115-035-033; 1:5,000) secondary antibodies were obtained from Jackson ImmunoResearch Laboratories, Inc. (West Grove, PA, USA).

For series [2], the system named is phosphorylated STAT5 in MV-4-11 cells. Kind of series: STAT5 phosphorylation western blot. The note with it: MV-4-11, 4 h. The class given is cell-based, human. Here is the method: as §2
(A western blot detects proteins with antibodies after separation by electrophoresis.)

Series [3] can be described thus: Pharmacokinetics in mice (intravenous and oral). In kind it is in vivo, ICR mice. Conditions: for AUC: read-out: AUC (converted); for half-life: read-out: Terminal half-life. The protocol: The protocols for the animal studies were approved by the Institute of Laboratory Animal Resources of Dongguk University, Seoul, South Korea (IACUC-2015-055-1). Five-week-old male Imprinting Control Region (ICR) mice were purchased from the Charles River Company Korea (Orient, Seoul, South Korea). Upon arrival, the animals were randomized and housed four per cage under strictly controlled environmental conditions (22-25°C and 48-52% relative humidity) with a 12 h light/dark cycle at an intensity of 150 to 300 Lux. All mice were provided food and water ad libitum and were then maintained during this study. In the intravenous study of LDD1937, 10 mg/kg of LDD1937 (dissolved in distilled water at a concentration of 2 mg/ml) were intravenously injected into the mice through the tail vein. A blood sample of approximately 0.12 ml was collected by cardiac puncture. Additionally, in the oral study of LDD1937, 10 mg/kg of LDD1937 (dissolved in the same solution used in the intravenous study) were orally administered to the mice. The analysis of LDD1937 and LDD1940, a metabolite of LDD1937, in biological samples was done with LC-MS/MS using the Waters UPLC-XEVO TQ system (Waters Corporation, Milford, CT, USA). […]1940, and carbamazepine (an internal standard, IS) were ionized in the multiple reaction monitoring mode with an ESI interface for positive ions ([M+H]^+). The turbo ion-spray interface was operated at an ion capillary voltage of 3.0 kV with a desolvation gas flow of 650 l/h and a cone gas flow of 10 l/h at 350°C. […] Separation was done on a reverse-phase C18 column (BEH, […]; Waters, Ireland) with a mobile phase, distilled water containing 0.1% formic acid and acetonitrile, at 30°C. After measuring the concentrations of the LDD1937 and LDD1940, standard methods were used to calculate the pharmacokinetic parameters using a non-compartmental analysis (WinNonlin 2.1; […] Corp., Mountain View, CA, USA).

[4] abbreviates: LDD1937, mice, 10 mg/kg intravenous.
Where [5] appears, read: male, ICR, mouse, plasma, LDD1937, mice, 10 mg/kg intravenous.
Setting [6] is: male, ICR, mouse, plasma, LDD1937, mice, 10 mg/kg oral.

Regarding `COC(=O)c1ccc2c(c1)/C(=C1/Nc3ccccc3/C1=N\OCCN1CCNCC1)C(=O)N2.Cl.Cl` [LDD1937, methyl (2Z,3E)-2′-oxo-3-((2-(piperazin-1-yl)ethoxy)imino)-[2,3′-biindolinylidene]-5′-carboxylate dihydrochloride], the GI50 (usually the concentration that inhibits growth by half) in the series on MCF-7 cells turned out to be 2.14 ± 0.16 µM. In the series on K562 cells, the GI50 was found to be 1.21 ± 0.33 µM. Further, the “TUNEL positive cell population” value in the series with MV-4-11 cells is 32.1%. In addition, in series [1], the “cyclin D1 level” value was “dose-dependent reduction of the cyclin D level”. In addition, the “phosphorylated STAT5” value in series [2] (1 nM) is “a reduction in the phosphorylated STAT5 was observed”. The phospho-STAT5 band entry in series [2] (0.1 µM) is on record as “completely disappeared”. In series [3] (setting [4]), the CLNR was found to be 83.6 ± 9.81 mL/min/kg and the “GI24 h (total amount recovered from the gastrointestinal tract at 24 h)” value is on record as 0.336 ± 0.0235 % of dose. In addition, the “Ae0–24 h (total amount excreted in 24-h urine)” value in series [3] (LDD1937, mice, 10 mg/kg intravenous, 10 mg/kg) was 0.283 % of dose and 0.283 ± 0.0252 % of dose. Further, the “Ae0–24 h” value in series [3] (LDD1937, mice, 10 mg/kg oral) is given as 0.213 ± 0.0163 % of dose. Besides, in series [3] (LDD1937, mice, 10 mg/kg oral, 10 mg/kg), the GI24 h is 1.67 % of dose and 1.67 ± 1.92 % of dose. Also, the concentration at 10 h in series [3] (male, ICR, mouse, plasma, 10 h after 10 mg/kg intravenous dosing, mice, read-out: plasma level) amounted to 30 ng/mL. Further, in series [3] (setting [5]), the mean residence time MRT – broadly, the average time that molecules of a dose stay in the body – is 2.77 h; the clearance was 83.6 ± 9.81 mL/min/kg; the exposure (AUC) (commonly concentration integrated over time) was 2000 ng·h/mL; the half-life (usually the time in which the quantity being followed falls by half) stood at 2.9 ± 0.47 h. The Vd in series [3] (male, ICR, mouse, plasma, LDD1937, mice, 10 mg/kg intravenous, read-out: Vss) turned out to be 14.1 ± 4.31 L/kg. In addition, in series [3] (setting [6]), the bioavailability (commonly dose-corrected exposure relative to a reference, in per cent) is 1.43%; the area under the curve (AUC) is 29.8 ng·h/mL; the half-life came to 1.72 ± 0.542 h. In addition, the Cmax – broadly, the highest concentration seen after dosing – in series [3] (male, ICR, mouse, plasma, LDD1937, mice, 10 mg/kg oral, read-out: Cmax) was determined as 23.3 ± 26.2 ng/mL. Moreover, the time of peak concentration (Tmax) – broadly, the time at which the peak concentration occurs – in series [3] (male, ICR, mouse, plasma, LDD1937, mice, 10 mg/kg oral, read-out: Tmax (converted)) was 0.5 h. In series [3] (single dose 10 mg/kg intravenous, mice), this compound returned a plasma concentration reached of 2700 ng/mL.
